Experimental data taken from US9206139B2, “Aggrecanase inhibitors” (Eli Lilly and Company, priority 2012, dated 2015).

How the values were obtained:
MMP7 = MMP7 (Homo sapiens (Human), UniProt P09237); assay: In vitro fluorescence assay of MMP7 activity; assay type: biochemical
Text: (§1) A continuous assay is used in which the substrate is a synthetic peptide containing a fluorescent group (7-methoxycoumarin, Mca), which is quenched by energy transfer to a 2,4-dinitrophenyl group. The substrate is the peptide Mca-PQGL-(3-[2,4-dinitrophenyl]-L-2,3-diaminopropionyl)-AR-OH. When the peptide is cleaved by MMP a large increase in fluorescence is observed. The source of the enzyme for this assay is full-length, recombinant, human pro-MMP-2 expressed in Chinese Hamster Ovary (CHO) cells that is subsequently activated by an organomercurial compound, 4-aminophenyl mercuric acetate (APMA). APMA is removed through a desalting column (MMP-2 Calbiochem® catalog number PF023). The assay buffer consists of 100 mM Tris-HCl (pH 7.5), 100 mM NaCl, 10 mM CaCl2 and 10 μM human serum albumin Each well of the 96-well plates consists of a 100 μL reaction mixture consisting of assay buffer, MMP (final concentration of 0.2 nM, prepared by diluting in assay buffer), and varied concentrations of inhibitor (prepared by serially diluting a given inhibitor in DMSO in a 96-well polypropylene plate using a 10 point or 11 point dilution scheme). The enzymatic reactions are initiated by adding the substrate to a final concentration of 20 μM. The final DMSO concentration in the assay is 1.0%. The plate is incubated for 2-4 hours at room temperature and substrate cleavage is determined at room temperature with a fluorescence plate reader (excitation filter 320 and emission filter 436) on a LJL Analyst® or a Wallac Envision®.
(§2) The data is analyzed by using ActivityBase® software programs vs. 5.3 using a 4 parameter fit model equation 205 from which relative IC50's are generated. Maximum signal is calculated from wells untreated by inhibitor but having enzyme, substrate and 1.0% DMSO. Minimum signal is calculated from wells having buffer only (no enzyme), substrate, and 1.0% DMSO.
(§3) Essentially the same procedure is used for the remaining MMP assays as the MMP-2 assay, above, or as known in the art. For example, for MMP-14, the enzyme source is MMP-14 (MT1-MMP) catalytic domain produced by activation of a recombinant soluble proform of the enzyme purified from the periplasm. It consists of amino acid residues Tyr^89 to Gly^265 of mature human MT1-MMP (Calbiochem® catalog number 475935). The final concentration of each well is 0.5 nM instead of 0.2 nM as in MMP-2 assay.

MMP-2 = MMP-2 (Homo sapiens (Human), UniProt P08253); assay: In vitro fluorescence assay of MMP-2 activity; assay type: biochemical; details: read-out: MMP2 IC50
Text: In Vitro Fluorescence Assay of MMP-2 Activity
as §1, §2

MMP1 = MMP1 (Homo sapiens (Human), UniProt P03956); assay: In vitro fluorescence assay of MMP1 activity; assay type: biochemical
Text: as §1, §2, §3

MMP3 = MMP3 (Homo sapiens (Human), UniProt P08254); assay: In vitro fluorescence assay of MMP3 activity; assay type: biochemical
Text: as §1, §2, §3

MMP8 = MMP8 (Homo sapiens (Human), UniProt P22894); assay: In vitro fluorescence assay of MMP8 activity; assay type: biochemical
Text: as §1, §2, §3

[1] = target: MMP-14 (MT1-MMP) catalytic domain (Homo sapiens (Human), UniProt P50281); assay: In vitro fluorescence assay of MMP-14 activity; assay type: biochemical; details: read-out: MMP14 IC50
Text: as §1, §2, §3

MMP13 = MMP13 (Homo sapiens (Human), UniProt P45452); assay: In vitro fluorescence assay of MMP13 activity; assay type: biochemical
Procedure: A continuous assay is used in which the substrate is a synthetic peptide containing a fluorescent group (7-methoxycoumarin, Mca), which is quenched by energy transfer to a 2,4-dinitrophenyl group. The substrate is the peptide Mca-PQGL-(3-[2,4-dinitrophenyl]-L-2,3-diaminopropionyl)-AR-OH. […] APMA is removed through a desalting column (MMP-2 Calbiochem® catalog number PF023). The assay buffer consists of 100 mM Tris-HCl (pH 7.5), 100 mM NaCl, 10 mM CaCl2 and 10 μM human serum albumin Each well of the 96-well plates consists of a 100 μL reaction mixture consisting of assay buffer, MMP (final concentration of 0.2 nM, prepared by diluting in assay buffer), and varied concentrations of inhibitor (prepared by serially diluting a given inhibitor in DMSO in a 96-well polypropylene plate using a 10 point or 11 point dilution scheme). The enzymatic reactions are initiated by adding the substrate to a final concentration of 20 μM. The final DMSO concentration in the assay is 1.0%.
as §2, §3

MMP9 = MMP9 (Homo sapiens (Human), UniProt P14780); assay: In vitro fluorescence assay of MMP9 activity; assay type: biochemical
Text: as §1, §2, §3

MMP12 = MMP12 (Homo sapiens (Human), UniProt P39900); assay: In vitro fluorescence assay of MMP12 activity; assay type: biochemical
Text: as §1, §2, §3

dog ADAMTS-4 [2] = target: T1, dog ADAMTS-4 (Canis lupus familiaris, UniProt A0A8I3Q3A2); assay: Dog ADAMTS-4 AlphaScreen assay; assay type: biochemical; details: purified dog ADAMTS-4 enzyme
Procedure: (§4) The plate is covered with aluminum foil tape and the binding is allowed to incubate overnight. The plate is then read on an AlphaScreen Fusion Alpha reader from Perkin Elmer. Data is analyzed using ActivityBase™ software (IDBS Alameda, Calif.). A similar assay is used with purified dog ADAMTS-4 enzyme.

[3] = Example 2 compound plasma concentration in osteoarthritis dogs (LC-MS/MS); assay type: in vivo, Beagle dogs
Text: (§5) Blood samples for baseline plasma ARGN concentrations are collected from all dogs on 30, 28, and 26 days to prior to beginning dose administration. […] The 4 age matched control dogs without OA all are assigned to the placebo treatment group.

plasma ARGN = assay: Plasma biomarker ARGN in osteoarthritis dogs; assay type: in vivo, Beagle dogs; details: OA dogs
Text: Study of the Plasma Biomarker ARGN in Osteoarthritis Dogs
The objective of this study is to determine the plasma biomarker ARGN response in osteoarthritic (OA) dogs to a compound of the invention across a range of doses following daily oral administration for 21 days. Sixteen (16) adult laboratory Beagle dogs ≧8 years of age with radiographic evidence of OA in the hip joint(s) and 4 age matched control Beagle dogs without OA are enrolled in the study.
as §5

ADAMTS-4 = ADAMTS-4 (Homo sapiens (Human), UniProt O75173); assay: ADAMTS-4 AlphaScreen assay; assay type: biochemical; details: buffer
Procedure: ADAMTS-4 and ADAMTS-5 AlphaScreen Assay:
as §4

dog ADAMTS-4 [4] = target: T1, dog ADAMTS-4; assay: Dog plasma shift AlphaScreen assay; assay type: biochemical; details: dog ADAMTS-4 in 25% dog plasma
Procedure: Rat and Dog Plasma Shift AlphaScreen Assay
The assay is completed in the same manner using 10 nM ADAMTS-5 instead of 2.1 nM. A similar assay is used with dog ADAMTS-4 in the presence of 25% dog plasma.

[5] = system: aggrecanase-cleaved fragments of aggrecan (NITEGE) in synovial lavage; assay: MIA injection PD model in rats; assay type: in vivo, Lewis rats; details: twice a day, rat
Procedure: MIA Injection PD Model in Rats
The assay as described in Swearingen et al., Osteoarthritis and Cartilage 18 (2010) 1159-1166, may be employed. MIA (Sigma, catalog #I2512, sodium salt) is prepared fresh on the day of use at 3 mg in 50 ul sterile 0.9% saline. 7-8-week-old male Lewis rats are anesthetized and injected intra-articularly with MIA into the right knee (to induce endogenous aggrecanase activity and the release of aggrecan fragments into the synovial fluid) and saline in the left (contralateral) knee on day 0. […] The synovial lavage is assayed for aggrecanase-cleaved fragments of aggrecan using the NITEGE sandwich ELISA. The amount of aggrecan fragments present in the synovial lavage is determined based on a standard curve generated with aggrecanase-digested rat aggrecan. Statistical analysis is performed using Dunnett's test. Sandwich ELISA assay: For the NITEGE ELISA, the a-NITEGE monoclonal antibody is immobilized on white high binding ELISA plates (Nunc) overnight at 4 C. Following blocking, rat synovial fluid lavage samples are added to the plate and fragments with a C-terminal NITEGE sequence are captured. The captured fragments are detected using the HRP-conjugated a-HABR monoclonal antibody. The ELISA signal is measured using the Supersignal ELISA femto maximum sensitivity substrate (Pierce) and read on a Victor luminometer. The amount of aggrecan fragments present in the sample is determined based on a standard curve generated with aggrecanase-digested rat chondrosarcoma aggrecan (850 mg/ml stock diluted in antibody dilution buffer).

Sequence of MMP12 (P39900 106-470, species assumed): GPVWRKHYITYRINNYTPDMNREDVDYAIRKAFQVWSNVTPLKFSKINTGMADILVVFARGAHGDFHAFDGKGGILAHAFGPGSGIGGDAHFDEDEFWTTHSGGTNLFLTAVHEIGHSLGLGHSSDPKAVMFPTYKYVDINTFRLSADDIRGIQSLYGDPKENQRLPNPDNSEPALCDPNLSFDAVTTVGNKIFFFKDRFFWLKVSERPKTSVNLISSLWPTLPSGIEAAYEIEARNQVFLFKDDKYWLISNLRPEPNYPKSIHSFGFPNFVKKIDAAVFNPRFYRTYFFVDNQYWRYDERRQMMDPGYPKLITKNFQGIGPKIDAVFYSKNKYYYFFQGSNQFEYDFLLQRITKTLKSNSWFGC
Sequence of ADAMTS-4 (O75173 213-837, species assumed): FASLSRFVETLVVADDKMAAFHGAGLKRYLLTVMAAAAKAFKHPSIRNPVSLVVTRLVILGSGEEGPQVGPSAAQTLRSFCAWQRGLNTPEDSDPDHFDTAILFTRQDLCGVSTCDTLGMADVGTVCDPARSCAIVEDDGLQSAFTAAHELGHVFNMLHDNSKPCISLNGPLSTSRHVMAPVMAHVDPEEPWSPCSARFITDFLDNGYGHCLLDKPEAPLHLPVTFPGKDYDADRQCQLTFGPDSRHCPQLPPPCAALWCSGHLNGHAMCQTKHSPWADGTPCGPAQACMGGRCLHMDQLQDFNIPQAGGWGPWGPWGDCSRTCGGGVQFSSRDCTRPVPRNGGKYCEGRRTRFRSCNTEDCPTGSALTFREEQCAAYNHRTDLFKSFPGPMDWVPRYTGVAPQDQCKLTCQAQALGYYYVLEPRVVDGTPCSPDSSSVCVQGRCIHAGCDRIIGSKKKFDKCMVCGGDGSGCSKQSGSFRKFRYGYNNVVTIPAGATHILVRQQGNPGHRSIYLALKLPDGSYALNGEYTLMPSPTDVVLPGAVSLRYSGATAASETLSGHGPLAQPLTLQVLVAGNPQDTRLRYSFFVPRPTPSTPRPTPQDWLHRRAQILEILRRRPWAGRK
Sequence of MMP1 (P03956 100-469, species assumed): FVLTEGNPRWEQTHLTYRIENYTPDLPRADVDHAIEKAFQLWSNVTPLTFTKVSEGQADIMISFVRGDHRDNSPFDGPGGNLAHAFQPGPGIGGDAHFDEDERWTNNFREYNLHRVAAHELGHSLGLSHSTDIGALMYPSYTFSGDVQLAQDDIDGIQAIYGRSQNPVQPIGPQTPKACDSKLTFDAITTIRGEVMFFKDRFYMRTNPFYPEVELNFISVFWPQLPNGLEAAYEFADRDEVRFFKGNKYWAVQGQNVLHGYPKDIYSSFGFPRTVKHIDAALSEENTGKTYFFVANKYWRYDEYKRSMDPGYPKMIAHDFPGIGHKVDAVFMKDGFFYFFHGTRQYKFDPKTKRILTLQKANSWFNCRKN
Sequence of MMP3 (P08254 100-477, species assumed): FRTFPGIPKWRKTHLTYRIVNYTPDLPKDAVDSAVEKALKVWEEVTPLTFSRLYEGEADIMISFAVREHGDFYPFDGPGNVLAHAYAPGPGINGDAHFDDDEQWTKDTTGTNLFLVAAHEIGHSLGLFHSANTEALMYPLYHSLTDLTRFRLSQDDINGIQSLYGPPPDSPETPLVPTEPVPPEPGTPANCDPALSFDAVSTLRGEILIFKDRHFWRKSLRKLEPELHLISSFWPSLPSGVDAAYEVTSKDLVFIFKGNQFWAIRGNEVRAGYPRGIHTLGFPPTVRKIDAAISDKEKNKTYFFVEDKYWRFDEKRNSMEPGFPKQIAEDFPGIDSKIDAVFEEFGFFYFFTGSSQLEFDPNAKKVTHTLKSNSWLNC
Sequence of MMP-2 (P08253 110-660): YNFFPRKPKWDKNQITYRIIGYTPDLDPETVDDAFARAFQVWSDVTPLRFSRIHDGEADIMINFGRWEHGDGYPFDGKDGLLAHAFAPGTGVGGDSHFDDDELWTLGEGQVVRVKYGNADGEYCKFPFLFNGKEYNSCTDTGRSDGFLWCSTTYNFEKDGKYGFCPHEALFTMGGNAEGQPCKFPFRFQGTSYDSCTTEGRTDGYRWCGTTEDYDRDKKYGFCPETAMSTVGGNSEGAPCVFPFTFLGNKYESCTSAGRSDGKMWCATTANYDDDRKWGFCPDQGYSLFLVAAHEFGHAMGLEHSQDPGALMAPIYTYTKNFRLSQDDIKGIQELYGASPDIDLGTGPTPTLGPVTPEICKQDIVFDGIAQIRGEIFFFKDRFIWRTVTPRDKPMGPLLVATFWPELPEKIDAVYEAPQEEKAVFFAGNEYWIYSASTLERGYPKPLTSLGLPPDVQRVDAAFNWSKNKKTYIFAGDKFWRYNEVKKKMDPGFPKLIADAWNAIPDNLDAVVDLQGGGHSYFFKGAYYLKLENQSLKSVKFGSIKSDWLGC
Sequence of MMP9 (P14780 94-707, species assumed): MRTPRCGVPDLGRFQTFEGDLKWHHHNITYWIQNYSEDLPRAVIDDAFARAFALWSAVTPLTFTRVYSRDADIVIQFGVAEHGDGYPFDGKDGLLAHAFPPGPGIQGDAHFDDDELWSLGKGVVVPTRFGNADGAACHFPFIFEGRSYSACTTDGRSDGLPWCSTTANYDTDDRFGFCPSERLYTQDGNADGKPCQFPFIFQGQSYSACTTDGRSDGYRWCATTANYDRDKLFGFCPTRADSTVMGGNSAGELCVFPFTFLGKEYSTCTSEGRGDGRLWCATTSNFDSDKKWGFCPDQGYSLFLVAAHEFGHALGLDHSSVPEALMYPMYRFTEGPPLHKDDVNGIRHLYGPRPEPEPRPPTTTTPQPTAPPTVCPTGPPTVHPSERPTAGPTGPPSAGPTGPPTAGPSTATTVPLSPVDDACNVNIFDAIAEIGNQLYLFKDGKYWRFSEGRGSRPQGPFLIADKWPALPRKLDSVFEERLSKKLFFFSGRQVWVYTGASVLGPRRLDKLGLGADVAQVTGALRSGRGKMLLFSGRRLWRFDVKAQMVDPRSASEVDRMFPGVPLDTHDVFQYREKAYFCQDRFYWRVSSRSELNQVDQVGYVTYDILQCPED
Sequence of MMP8 (P22894 101-467, species assumed): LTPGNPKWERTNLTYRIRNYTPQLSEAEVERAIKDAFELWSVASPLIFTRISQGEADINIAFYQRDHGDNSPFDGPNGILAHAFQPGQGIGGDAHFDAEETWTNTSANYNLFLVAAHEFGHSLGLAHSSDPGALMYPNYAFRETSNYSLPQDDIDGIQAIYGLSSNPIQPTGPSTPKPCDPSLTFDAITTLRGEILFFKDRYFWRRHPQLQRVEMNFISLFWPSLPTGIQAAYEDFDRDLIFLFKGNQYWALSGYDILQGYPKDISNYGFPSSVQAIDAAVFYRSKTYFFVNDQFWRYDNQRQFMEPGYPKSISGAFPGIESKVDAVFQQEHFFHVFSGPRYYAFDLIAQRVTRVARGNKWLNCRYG
Sequence of MMP7 (P09237 95-267, species assumed): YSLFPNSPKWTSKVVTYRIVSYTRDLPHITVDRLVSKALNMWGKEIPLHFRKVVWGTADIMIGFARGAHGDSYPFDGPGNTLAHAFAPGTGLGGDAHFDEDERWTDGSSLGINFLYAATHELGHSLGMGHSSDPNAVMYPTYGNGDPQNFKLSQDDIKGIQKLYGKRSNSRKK
T1 sequence (A0A8I3Q3A2 1-992): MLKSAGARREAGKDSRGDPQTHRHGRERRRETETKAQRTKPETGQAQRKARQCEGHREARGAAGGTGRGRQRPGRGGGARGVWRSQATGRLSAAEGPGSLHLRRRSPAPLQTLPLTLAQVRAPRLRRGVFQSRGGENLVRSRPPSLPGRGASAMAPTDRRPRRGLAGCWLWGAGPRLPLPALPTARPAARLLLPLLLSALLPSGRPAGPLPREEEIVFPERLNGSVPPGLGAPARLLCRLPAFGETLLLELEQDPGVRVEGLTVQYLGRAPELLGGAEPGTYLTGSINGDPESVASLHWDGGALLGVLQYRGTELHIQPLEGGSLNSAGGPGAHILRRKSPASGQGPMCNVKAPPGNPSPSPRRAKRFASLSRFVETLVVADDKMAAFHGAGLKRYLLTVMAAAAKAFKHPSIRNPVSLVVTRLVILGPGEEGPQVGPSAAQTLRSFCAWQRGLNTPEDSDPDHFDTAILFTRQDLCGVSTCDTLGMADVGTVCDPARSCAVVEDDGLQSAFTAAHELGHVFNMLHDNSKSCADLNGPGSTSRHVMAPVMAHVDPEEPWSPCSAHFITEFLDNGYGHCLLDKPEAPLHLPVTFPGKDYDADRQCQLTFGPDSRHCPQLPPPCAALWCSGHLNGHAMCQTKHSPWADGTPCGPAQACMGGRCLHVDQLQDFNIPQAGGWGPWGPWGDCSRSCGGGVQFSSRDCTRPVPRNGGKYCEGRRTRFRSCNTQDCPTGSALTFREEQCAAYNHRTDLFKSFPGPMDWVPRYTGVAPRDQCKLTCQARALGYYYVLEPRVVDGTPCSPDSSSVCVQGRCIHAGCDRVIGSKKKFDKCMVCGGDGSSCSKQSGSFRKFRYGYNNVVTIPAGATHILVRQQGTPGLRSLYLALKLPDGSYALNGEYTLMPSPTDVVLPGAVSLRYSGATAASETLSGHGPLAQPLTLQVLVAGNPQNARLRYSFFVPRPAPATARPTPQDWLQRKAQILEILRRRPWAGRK

| Structure (SMILES) | IC50 (MMP7) [µM] | IC50 (MMP-2) [µM] | IC50 (MMP1) [µM] | IC50 (MMP3) [µM] | IC50 (MMP8) [µM] | IC50 [1] [µM] | IC50 (MMP13) [µM] | IC50 (MMP9) [µM] | IC50 (MMP12) [µM] | IC50 (ADAMTS-4) [µM] | further results |
| --- | --- | --- | --- | --- | --- | --- | --- | --- | --- | --- | --- |
| O=C1NC(=O)[C@](CNC(=O)[C@@H](Cc2ccc(C(F)(F)F)cc2)C2CC2)(C2CC2)N1 [Example 3, (2S)-2-cyclopropyl-N-[[(4R)-4-cyclopropyl-2,5-dioxo-imidazolidin-4-yl]methyl]-3-[4-(trifluoromethyl)phenyl]propanamide] | > 100 | 35 | 39.2 | 99.7 | 0.804 | 50.2 | 47 | > 100 | 0.268 | – | – |
| CC[C@H](Cc1ccc(C(F)(F)F)cc1)C(=O)NC[C@@]1(C2CC2)NC(=O)NC1=O [Example 2, (2R)—N-[[(4R)-4-cyclopropyl-2,5-dioxo-imidazolidin-4-yl]methyl]-2-[[4-(trifluoromethyl)phenyl]methyl]butanamide] | > 100 | 0.704 | 0.897 | 15.3 | < 0.0051 | 7.99 | 4.19 | 0.439 | 0.026 | 0.002 | IC50 (dog ADAMTS-4 [2]): 0.001 µM; plasma concentrations versus dosage ([3]; 0.1, 1, 10 mg/kg daily oral): increase with dosage in a sub-proportional manner; steady-state trough concentrations ([3]; daily oral dosing): rapidly achieved; mean Day 21 inhibition of plasma ARGN concentrations (plasma ARGN; 0.1 mg/kg daily oral): 33.8%; mean Day 21 inhibition of plasma ARGN concentrations (plasma ARGN; 1 mg/kg daily oral): 70.7%; mean Day 21 inhibition of plasma ARGN concentrations (plasma ARGN; 10 mg/kg daily oral): 80.3%; IC50 (dog ADAMTS-4 [4]): 0.326 µM |
| CC(C)(Cc1ccc(C(F)(F)F)cc1)C(=O)NC[C@@]1(C2CC2)NC(=O)NC1=O [Example 5, N-[[(4R)-4-cyclopropyl-2,5-dioxoimidazolidin-4-yl]methyl]-2,2-dimethyl-3-[4-(trifluoromethyl)phenyl]propanamide] | > 100 | 4.65 | 4.55 | 13.2 | 0.054 | 14.9 | 4.81 | 7.59 | 0.071 | 0.007 | – |
| C[C@H](Cc1ccc(C(F)(F)F)cc1)C(=O)NC[C@@]1(C2CC2)NC(=O)NC1=O [Example 1, (2R)—N-[[(4R)-4-cyclopropyl-2,5-dioxo-imidazolidin-4-yl]methyl]-2-methyl-3-[4-(trifluoromethyl)phenyl]propanamide] | > 100 | 1.75 | – | 2.85 | 0.0179 | 3.89 | 1.11 | 12 | 0.009 | – | % Inhibition ([5]; 10 MPK oral): 41.3%; MIA (aggrecan fragments in synovial lavage of MIA knee) ([5]; 10 MPK oral): 15.87; % Inhibition ([5]; 30 MPK oral): 48.2%; MIA (aggrecan fragments in synovial lavage of MIA knee) ([5]; 30 MPK oral): 14.00; % Inhibition ([5]; 100 MPK oral): 70.2%; MIA (aggrecan fragments in synovial lavage of MIA knee) ([5]; 100 MPK oral): 8.06 |
| CC(C)[C@H](Cc1ccc(C(F)(F)F)cc1)C(=O)NC[C@@]1(C2CC2)NC(=O)NC1=O [Example 4, (2S)—N-[[(4R)-4-cyclopropyl-2,5-dioxo-imidazolidin-4-yl]methyl]-3-methyl-2-[[4-(trifluoromethyl)phenyl]methyl]butanamide] | > 100 | > 100 | 56.8 | > 100 | 5.22 | > 100 | > 100 | > 100 | 3.37 | 0.014 | – |
